# According to the supplement of paper PMC11208160:
# Experiment: recombinant barcode read abundance after kanamycin selection (control-corrected) (log10(CPM+1)); higher = more efficient recombination; sequences stand for … in AGTGCAGAGAAAATCGGCCAGTTTTCTCTGCCTGCAGTCCGCATGCCGT…AGATTTATGCAGCGGACTGCCTTTCTCCCAAAGTGATAAACCGGACAGTATCATGGACCGGTTTTCCCGGTAATCCGTATTTGCAAGGTTGGTTTCACT; site = the 11-nt target
# Outline: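 Targets were screened in pooled form in E. coli against IS621 bridge RNA target-binding loops. Recombination efficiency is based on barcode counts at recombinant junctions in counts per million, averaged and corrected for the control. Numbers are shown as log10(CPM+1), with duplicate plates on chloramphenicol/ampicillin LB agar (control) or chloramphenicol/ampicillin/kanamycin with 0.1 mM IPTG.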
# 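Note: IS621 recombinase and bridge RNA in Escherichia coli cells.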
row,Sequence,recombinant barcode read abundance (log10)
1,TCCGCGACTTGGGTTCTAACCTGTTGCCT (site TCCGCGACTAG),0.159
2,ACTTAGCCTTGGGTTCTAACCTGTTGCCT (site ACTTAGCCTAG),1.33
3,ATGCGAGCTTGGGTTCTAACCTGTTGCCG (site ATGCGAGCTCG),0.815
4,GTGTTTGCTTGGGTTCTAACCTGTTGCCT (site GTGTTTGCTAG),0.596
5,TCGCGGACTTGGGTTCTAACCTGTTGCCT (site TCGCGGACTAG),0.168
6,ACATGTCCTTGGGTTCTAACCTGTTGCCT (site ACATGTCCTAC),0.0127
7,AAGTTGTCTTGGGTTCTAACCTGTTGCGT (site AAGTTGTCTAC),2.77
8,CCAAGTACTTGGGTTCTAACCTGTTGCTT (site CCAAGTACTAA),0.387
9,GTCCCTCCTTGGGTTCTAACCTGTTGCTT (site GTCCCTCCTAC),0.104
10,CATGGGTCTTGGGTTCTAACCTGTTGCCT (site CCTGGGTCTAA),0.0946
11,ATCCACCCTTGGGTTCTAACCTGTTGCGG (site GACCACCCTCC),0.218
12,CTACAGACTTGGGTTCTAACCTGTTGCGC (site CTACAGACTGC),1.21
13,AGGAAGACTTGGGTTCTAACCTGTTGCCA (site AGGTAGACTTG),0.412
14,CACAAAGCTTGGGTTCTAACCTGTTGCCT (site CACAAAGCTAG),0.84
15,CGCTGACCTTGGGTTCTAACCTGTTGCCT (site CGCTGACCTAG),0.0666
16,TAGTGTGCTTGGGTTCTAACCTGTTGCTT (site TAGTGTGCTAC),0.117
17,AGGAACTCTTGGGTTCTAACCTGTTGCTT (site AGGAGCTCTTA),0.0561
18,GACGTAACTTGGGTTCTAACCTGTTGCCT (site GAGGTAACTAG),0.0292

row,Sequence,recombinant barcode read abundance (log10)
1,GGGACCTCTTGGGTTCTAACCTGTTGCGG (site GGGACCTCTCC),1.94
2,CATTACTCTTGGGTTCTAACCTGTTGCTT (site CTTTCCTCTAA),0.032
3,CCGCTATCTTGGGTTCTAACCTGTTGCCT (site CCGATATCTAG),0.199
4,GTATCATCTTGGGTTCTAACCTGTTGCCT (site GTATCAACTAG),0.126
5,AGTCTGCCTTGGGTTCTAACCTGTTGCCT (site AGTCTGCCTAG),0.427
6,GAGTAGCCTTGGGTTCTAACCTGTTGCGG (site GAGTCGCCTCC),0.196
7,TCCTTCTCTTGGGTTCTAACCTGTTGCCT (site GAGGGGACTCT),0.103
8,CTAATTACTTGGGTTCTAACCTGTTGCAA (site CTAAGTACTCT),0.0716
9,TGTCGATCTTGGGTTCTAACCTGTTGCCT (site TGTCAATCTAC),0.0889
10,CCGCATACTTGGGTTCTAACCTGTTGCCT (site CGGCATACTAG),0.0516
11,ATCACACCTTGGGTTCTAACCTGTTGCCT (site ATCACACCTAG),0.761
12,GGGGCACCTTGGGTTCTAACCTGTTGCAT (site GGGGCACCTAG),0.598
13,AGAAGTACTTGGGTTCTAACCTGTTGCGG (site AGAAGTACTCC),1.86
14,TAAACAGCTTGGGTTCTAACCTGTTGCCT (site TAAACAGCTAG),0.0976
15,GTACAGACTTGGGTTCTAACCTGTTGCCT (site GTGCAGACTAG),0.0183
16,GTGACCGCTTGGGTTCTAACCTGTTGCCT (site GTTACCGCTAG),0.59
17,ATAAGCTCTTGGGTTCTAACCTGTTGCCG (site ATAAGCTCTCG),1.92
18,TCTCAACCTTGGGTTCTAACCTGTTGCCT (site TCTCAACCTAG),1.33
